Measured values published in the NIST ThermoML archive (doi:10.1021/je060271a).

Conditions: 343.15 K, Liquid, Vibrating tube method

CCCCCCCC(=O)OCC(COC(=O)CCCCCCC)(COC(=O)CCCCCCC)COC(=O)CCCCCCC [pentaerythritol tetraoctanoate]
Conditions	mass density [kg/m3]
4105.1 kPa	929.1
4132.4 kPa	929.2
4136.6 kPa	929.1
4140.2 kPa	929.1
4142.5 kPa	929
4144.7 kPa	929.2
4148 kPa	929.2
4149.4 kPa	929
4149.6 kPa	929
4163.9 kPa	929.2
4189.2 kPa	929.1
4213.5 kPa	929.1
4238.2 kPa	929.2
4268.5 kPa	929.1
4295 kPa	929.3
4321.4 kPa	929.2
4348.4 kPa	929.2
4373.8 kPa	929.1
4394.2 kPa	929.2
4418.5 kPa	929.1
4438.6 kPa	929.2
4459 kPa	929.3
4483.8 kPa	929.4
4504.7 kPa	929.3
4525.8 kPa	929.4
4546.8 kPa	929.4
4573.1 kPa	929.3
4596.8 kPa	929.5
4619 kPa	929.5
4641.5 kPa	929.4
4713.3 kPa	929.5
4740.6 kPa	929.4
4763.8 kPa	929.5
4787 kPa	929.6
4811.1 kPa	929.6
4839.6 kPa	929.6
4864.5 kPa	929.5
4889.8 kPa	929.7
4915.8 kPa	929.8
4945.5 kPa	929.6
4970.5 kPa	929.8
4996.2 kPa	929.6
5026.3 kPa	929.7
5052.8 kPa	929.8
5079.6 kPa	929.8
5112.2 kPa	929.7
5139.3 kPa	929.8
5167 kPa	929.8
5189.5 kPa	929.8
5228.6 kPa	929.8
5257.5 kPa	929.9
5286.4 kPa	929.8
5321 kPa	930
5350.7 kPa	930
5380.5 kPa	929.9
5410.7 kPa	929.9
5447.9 kPa	929.9
5480.3 kPa	930
5514 kPa	930.1
5545.6 kPa	930.2
5572.5 kPa	930.2
5593.9 kPa	930.1
5619.7 kPa	930.1
5642.1 kPa	930.2
5664.3 kPa	930.2
5686.4 kPa	930.2
5712.7 kPa	930.3
5735.2 kPa	930.2
5757.8 kPa	930.3
5785.1 kPa	930.2
5808.1 kPa	930.2
5832 kPa	930.3
5855.9 kPa	930.3
5884.4 kPa	930.4
5908.6 kPa	930.4
5933.3 kPa	930.4
5959.2 kPa	930.5
5984.1 kPa	930.3
6013.9 kPa	930.4
6039.1 kPa	930.4
6064.3 kPa	930.5
6090.1 kPa	930.4
6121 kPa	930.5
6147.5 kPa	930.5
6174.6 kPa	930.5
6205.9 kPa	930.5
6232.5 kPa	930.6
6260.2 kPa	930.7
6288.7 kPa	930.6
6316.5 kPa	930.6
6348.8 kPa	930.7
6376.3 kPa	930.6
6404.7 kPa	930.6
6439.7 kPa	930.7
6468.8 kPa	930.7
6497.8 kPa	930.7
6532.7 kPa	930.8
6563.4 kPa	930.8
6593.5 kPa	930.9
6624.3 kPa	930.8
6662.3 kPa	930.8
6694.9 kPa	930.9
6726.4 kPa	930.9
6757.3 kPa	930.9
6788.9 kPa	931.1
6826.4 kPa	931
6858.7 kPa	931.1
6891.5 kPa	931
6930.9 kPa	931.2
6964.4 kPa	931
6998.3 kPa	931.1
7038.9 kPa	931.2
7073.6 kPa	931.2
7109 kPa	931.2
7146.6 kPa	931.3
7184.3 kPa	931.3
7220.4 kPa	931.2
7264.4 kPa	931.2
7301.6 kPa	931.4
7339.6 kPa	931.5
7378.1 kPa	931.3
7424.8 kPa	931.3
7463.5 kPa	931.5
7503.2 kPa	931.5
7535.8 kPa	931.5
7575 kPa	931.6
7614.7 kPa	931.5
7673.1 kPa	931.6
7715 kPa	931.7
7765.2 kPa	931.6
7808 kPa	931.8
7853.1 kPa	931.7
7898.8 kPa	931.7
7950.2 kPa	931.8
7984.6 kPa	931.8
8150.9 kPa	931.9
8189.7 kPa	932
8222.6 kPa	932
8255.6 kPa	932
8295.8 kPa	932.1
8329.6 kPa	932.1
8363.2 kPa	932.1
8515 kPa	932.1
8550.2 kPa	932.2
8585.9 kPa	932.3
8629.7 kPa	932.3
8666.6 kPa	932.3
8703.3 kPa	932.4
8739.9 kPa	932.4
8784.7 kPa	932.5
8991.7 kPa	932.5
9031.4 kPa	932.6
9071.9 kPa	932.5
9120.5 kPa	932.6
9162.4 kPa	932.7
9204.8 kPa	932.7
9248.6 kPa	932.6
9301 kPa	932.7
9344.4 kPa	932.8
9387.6 kPa	932.8
9449 kPa	932.8
9480 kPa	933
9517.6 kPa	933
9549.6 kPa	933.1
9582.5 kPa	933
9620.6 kPa	932.9
9653.7 kPa	933.2
9687.4 kPa	933
9726.7 kPa	933.1
9760 kPa	933.1
9793.4 kPa	933.2
9827.7 kPa	933
9868.1 kPa	933.1
9902.1 kPa	933.2
9943.1 kPa	933.2
9978.4 kPa	933.4
10014 kPa	933.3
10058 kPa	933.4
10096 kPa	933.4
10138 kPa	933.4
10176 kPa	933.4
10207 kPa	933.3
10234 kPa	933.4
10256 kPa	933.5
10278 kPa	933.4
10305 kPa	933.6
10327 kPa	933.5
10349 kPa	933.5
10376 kPa	933.6
10422 kPa	933.8
10450 kPa	933.7
10474 kPa	933.6
10497 kPa	933.7
10520 kPa	933.7
10543 kPa	933.8
10572 kPa	933.6
10595 kPa	933.7
10618 kPa	933.7
10647 kPa	933.6
10671 kPa	933.7
10699 kPa	933.7
10723 kPa	933.8
10748 kPa	933.8
10777 kPa	933.8
10803 kPa	933.9
10827 kPa	933.9
10852 kPa	933.8
10881 kPa	933.9
10906 kPa	933.9
10936 kPa	934
10961 kPa	934
10987 kPa	933.9
11012 kPa	933.9
11042 kPa	934
11068 kPa	934
11099 kPa	934.1
11126 kPa	933.9
11153 kPa	934
11180 kPa	934.2
11206 kPa	934.2
11238 kPa	934.2
11264 kPa	934.2
11296 kPa	934.3
11323 kPa	934.3
11350 kPa	934.2
11383 kPa	934.3
11410 kPa	934.3
11438 kPa	934.3
11471 kPa	934.3
11499 kPa	934.3
11528 kPa	934.4
11561 kPa	934.4
11590 kPa	934.4
11618 kPa	934.4
11647 kPa	934.2
11710 kPa	934.4
11739 kPa	934.5
11774 kPa	934.4
11804 kPa	934.5
11834 kPa	934.4
11869 kPa	934.5
11900 kPa	934.6
11930 kPa	934.7
11966 kPa	934.6
11997 kPa	934.7
12027 kPa	934.6
12064 kPa	934.7
12095 kPa	934.7
12126 kPa	934.7
12163 kPa	934.8
12195 kPa	934.7
12227 kPa	934.8
12265 kPa	934.9
12296 kPa	934.8
12329 kPa	934.9
12362 kPa	934.8
12401 kPa	934.9
12434 kPa	935
12468 kPa	935
12507 kPa	935
12541 kPa	935
12575 kPa	935
12615 kPa	935.1
12649 kPa	935.2
12684 kPa	935.1
12725 kPa	935.1
12760 kPa	935.1
12797 kPa	935.2
12831 kPa	935.2
12873 kPa	935.3
12909 kPa	935.2
12944 kPa	935.3
12980 kPa	935.3
13024 kPa	935.5
13060 kPa	935.3
13096 kPa	935.4
13140 kPa	935.5
13177 kPa	935.5
13222 kPa	935.7
13261 kPa	935.6
13300 kPa	935.6
13339 kPa	935.6
13384 kPa	935.7
13423 kPa	935.6
13462 kPa	935.6
13508 kPa	935.7
13548 kPa	935.8
13587 kPa	935.6
13635 kPa	935.7
13675 kPa	935.7
13716 kPa	935.8
13807 kPa	936
13849 kPa	936
13893 kPa	936
13947 kPa	936
13993 kPa	936.1
